From patent US20170066717A1, “NEW PHENYLAZETIDINECARBOXYLATE OR -CARBOXAMIDE COMPOUNDS” (INVENTIVA, priority 2014, published 2017) come the findings set out here.

Holding throughout (format): cell-based
One test has as its target T1, NURR-1/RXRα (Homo sapiens, UniProt P19793).
T1 construct: expressed in transfected cells; host or cells: Cos-7 cells
The test can be described thus: Transactivation test, NURR-1-Gal4/RXRα, luciferase reporter in Cos-7 cells. Conditions: for Emax: COS-7, induction level relative to reference XCT0135908 at 2×10^−5 M (=100%), read-out: hNurr1_RXRaFL Emax (%); for EC50: Cos-7 cells, NURR-1-Gal4/RXRα, luciferase reporter, read-out: hNurr1_RXRaFL EC50. (A reporter such as luciferase makes a cellular process visible.)

The test system of test [1] is dopaminergic neurons of primary culture of rat embryo mesencephalon treated with MPP+. The test can be described thus: Neuroprotection in primary culture of rat embryo mesencephalon treated with MPP+ (count of tyrosine hydroxylase expressing cells). As to conditions: recombinant human BDNF 10 ng/mL = 100%, 2 days with MPP+. How it is done: Another in vitro test was carried out with the compounds according to the invention, for the purpose of verifying that the molecules indeed have the expected neuroprotective effect in vitro.
The compounds were tested in a model of primary culture of rat embryo mesencephalon treated with 1-methyl-4-phenylpyridinium (MPP+), which is the active metabolite of 1-methyl-4-phenyl-1,2,3,6-tetrahydropyridine (MPTP). MPP+ enters into dopananergic neurons via the dopamine transporter and causes the death of these dopaminergic neurons. The following protocol was used.
Gestating female rats (15 days of gestation) were euthanized and the rat embryos were removed. The mesencephalons were removed. The tissue was then dissociated mechanically and by using trypsin. The cells collected after centrifugation were distributed into 96-well plates and left to stand for 5 days. The culture conditions made it possible to obtain a cell layer composed of neurons (dopaminergic and others) and astrocytes. On the 6th day, the cells were optionally treated with MPP+ in the presence or absence of test compound. After 2 days of incubation, the cells were fixed and various cell labellings were carried out; staining of the nuclei with the Hoechst fluorescent label and immunolabelling of tyrosine hydroxylase. The cells expressing tyrosine hydroxylase were counted using an image analyzer coupled to an optical microscope.
Recombinant human BDNF trophic factor (10 ng/mL) was used as reference. The activities of the compounds are given as percentages of activity relative to the BDNF reference, the activity of which is arbitrarily defined as being equal to 100%.

The next test deals with T2, NURR-1/RXRγ (Homo sapiens, UniProt P48443).
T2 construct: expressed in transfected cells; host or cells: Cos-7 cells
T2 sequence (P48443 whole entry): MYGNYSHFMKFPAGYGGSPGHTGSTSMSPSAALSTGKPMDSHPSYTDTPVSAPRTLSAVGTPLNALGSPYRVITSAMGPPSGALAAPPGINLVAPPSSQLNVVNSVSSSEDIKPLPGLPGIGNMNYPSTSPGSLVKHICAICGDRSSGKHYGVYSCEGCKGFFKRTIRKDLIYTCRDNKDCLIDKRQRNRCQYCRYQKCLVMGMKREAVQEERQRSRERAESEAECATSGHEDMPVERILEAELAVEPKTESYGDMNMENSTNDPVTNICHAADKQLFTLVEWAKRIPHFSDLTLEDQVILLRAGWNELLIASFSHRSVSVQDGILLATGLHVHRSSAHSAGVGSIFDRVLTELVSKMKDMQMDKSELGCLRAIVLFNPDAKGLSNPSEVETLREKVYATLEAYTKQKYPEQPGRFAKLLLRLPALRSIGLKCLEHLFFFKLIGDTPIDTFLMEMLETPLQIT
T2 sequence (P43354 whole entry partner): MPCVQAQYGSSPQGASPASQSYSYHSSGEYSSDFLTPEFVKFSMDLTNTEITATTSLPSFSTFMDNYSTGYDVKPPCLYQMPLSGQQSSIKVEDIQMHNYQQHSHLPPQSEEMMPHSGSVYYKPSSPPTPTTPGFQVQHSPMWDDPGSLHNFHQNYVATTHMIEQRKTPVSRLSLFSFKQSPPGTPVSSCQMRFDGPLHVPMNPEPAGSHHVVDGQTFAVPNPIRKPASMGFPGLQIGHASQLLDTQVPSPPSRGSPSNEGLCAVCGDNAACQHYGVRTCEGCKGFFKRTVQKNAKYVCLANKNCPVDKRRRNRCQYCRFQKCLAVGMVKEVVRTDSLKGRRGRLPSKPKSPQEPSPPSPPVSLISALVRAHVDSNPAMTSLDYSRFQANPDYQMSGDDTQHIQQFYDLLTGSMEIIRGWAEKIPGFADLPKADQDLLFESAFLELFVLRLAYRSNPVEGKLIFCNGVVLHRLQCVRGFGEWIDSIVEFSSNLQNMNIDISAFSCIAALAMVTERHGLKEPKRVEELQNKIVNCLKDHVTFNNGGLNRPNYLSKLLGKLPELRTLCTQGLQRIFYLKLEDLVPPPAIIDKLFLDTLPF
T2 sequence (P04386 1-147 partner limits assumed): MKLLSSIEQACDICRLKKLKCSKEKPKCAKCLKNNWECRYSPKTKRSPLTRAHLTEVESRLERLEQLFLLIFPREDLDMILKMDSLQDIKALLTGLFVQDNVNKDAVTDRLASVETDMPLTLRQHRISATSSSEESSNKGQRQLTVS
Put plainly: Transactivation test, NURR-1-Gal4/RXRγ, luciferase reporter in Cos-7 cells. As to conditions: for Emax: COS-7, induction level relative to reference XCT0135908 at 2×10^−5 M (=100%), read-out: hNurr1_RXRgFL Emax (%); for EC50: Cos-7 cells, NURR-1-Gal4/RXRγ, luciferase reporter, read-out: hNurr1_RXRgFL EC50.

For orientation: Emax means the maximal effect, on the per cent scale that the assay sets. Broadly, the EC50 is the concentration giving half of the maximal effect.

Molecules are shown by their SMILES.

T1 sequence (P19793 whole entry): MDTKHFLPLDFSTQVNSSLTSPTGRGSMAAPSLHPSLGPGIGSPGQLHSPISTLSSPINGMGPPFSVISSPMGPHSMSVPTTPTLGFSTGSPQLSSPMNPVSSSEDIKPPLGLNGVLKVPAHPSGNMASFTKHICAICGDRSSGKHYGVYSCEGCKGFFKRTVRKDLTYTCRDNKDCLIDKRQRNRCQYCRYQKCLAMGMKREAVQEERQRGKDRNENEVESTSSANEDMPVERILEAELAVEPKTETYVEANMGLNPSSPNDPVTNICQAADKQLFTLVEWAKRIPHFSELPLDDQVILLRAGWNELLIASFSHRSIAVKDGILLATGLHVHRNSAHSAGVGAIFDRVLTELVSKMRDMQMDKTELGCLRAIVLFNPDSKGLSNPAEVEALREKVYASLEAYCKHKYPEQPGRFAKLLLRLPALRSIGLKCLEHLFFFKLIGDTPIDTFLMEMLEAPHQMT
T1 sequence (P43354 whole entry partner): as the sequence (P43354 whole entry partner) above
T1 sequence (P04386 1-147 partner limits assumed): as the sequence (P04386 1-147 partner limits assumed) above

As to `CCCC1CN(c2cccc(N3CC(C(=O)O)C3)c2)c2ccc(C(F)(F)F)cc2O1` (stereo not drawn) [Example 117, 1-[3-[2-propyl-7-(tirfluormethyl)2,3-dihydro-1,4-benzoxazin-4-yl]phenyl]azetidine-3-carboxylic acid], the results for the Emax on NURR-1/RXRα and on NURR-1/RXRγ were 103% and 125%, respectively. Besides, the concentration giving a half-maximal response (EC50) was 9 nM at NURR-1/RXRα and 4 nM on NURR-1/RXRγ. The “percentage of activity relative to the BDNF reference” value worked out at 75% in test [1] (compound 1 μM) and 84% in test [1] (compound 10 μM).

For `CC(C)Cc1cn(-c2cccc(N3CC(C(=O)O)C3)c2)c2ccc(C(F)(F)F)cc12` [Example 125, 1-[3-[3-isobutyl-5-(trifluoromethyl)indol-1-yl]phenyl]azetidine-3-carboxylic acid], the Emax stood at 152% at NURR-1/RXRα and 162% on NURR-1/RXRγ. The 50% effective concentration (EC50) at NURR-1/RXRα was found to be 4 nM; at NURR-1/RXRγ it was 2 nM. Also, the “percentage of activity relative to the BDNF reference” value in test [1] (compound 1 μM) is 86%; in test [1] (compound 10 μM) it was 107%.

As to `CN(C)S(=O)(=O)c1cn(-c2cccc(N3CC(C(=O)O)C3)c2)c2ccc(C(F)(F)F)cc12` [Example 136, 1-[3-[3-(dimethylsulfamoyl)-5-(trifluoromethyl)indol-1-yl]phenyl]azetidine-3-carboxylic acid], the maximal effect (Emax) on NURR-1/RXRα was found to be 128%; at NURR-1/RXRγ, 121%. Besides, the concentration giving a half-maximal response (EC50) on NURR-1/RXRα was found to be 22 nM; on NURR-1/RXRγ, 55 nM. Moreover, the “percentage of activity relative to the BDNF reference” value was determined as 49% in test [1] (compound 1 μM) and 86% in test [1] (compound 10 μM).

In the case of `Cc1cn(-c2cccc(N3CC(C(=O)NCCCO)C3)c2)c2ccc(C(F)(F)F)cc12` [Example 154, N-(3-hydroxypropyl)-1-[3-[3-methyl-5-(trifluoromethyl)indol-1-yl]phenyl]azetidine-3-carboxamide], the maximum response (Emax) on NURR-1/RXRα was determined as 111%; at NURR-1/RXRγ, 104%. In addition, the EC50 on NURR-1/RXRα was < 1 nM; at NURR-1/RXRγ, 3 nM. In addition, the “percentage of activity relative to the BDNF reference” value is given as 67% in test [1] (compound 1 μM) and 105% in test [1] (compound 10 μM).

In the case of `Cc1cn(-c2cccc(N3CC(C(=O)NCCc4c[nH]cn4)C3)c2)c2ccc(C(F)(F)F)cc12` [Example 155, N-[2-(1H-imidazol-4-yl)ethyl]-1-[3-[3-methyl-5-(trifluoromethyl)indol-1yl]phenyl]azetidine-3-carboxamide], the Emax on NURR-1/RXRα came to 123%; on NURR-1/RXRγ, 116%. Besides, the EC50 at NURR-1/RXRα turned out to be 4 nM; on NURR-1/RXRγ, 5 nM. The results for the “percentage of activity relative to the BDNF reference” value in test [1] (compound 1 μM) and in test [1] (compound 10 μM) were 49% and 94%, respectively.

As to `Cc1cn(-c2cccc(N3CC(C(=O)NCCOCCO)C3)c2)c2ccc(C(F)(F)F)cc12` [Example 158, N-[2-(2-hydroxethoxy)ethyl]-1-[3-[3-methyl-5-(trifluoromethyl)indol-1-yl]phenyl]azetidine-3-carboxamide], the maximal effect (Emax) worked out at 92% at NURR-1/RXRα and 125% on NURR-1/RXRγ. The half-maximal effective concentration (EC50) came out at 2 nM at NURR-1/RXRα and 4 nM on NURR-1/RXRγ. The “percentage of activity relative to the BDNF reference” value in test [1] (compound 1 μM) was 54%; in test [1] (compound 10 μM) it was 77%.

For the molecule `Cc1cn(-c2cccc(N3CC(C(=O)NCCC#N)C3)c2)c2ccc(C(F)(F)F)cc12` [Example 159, N-(2-cyanoethyl)-1-[3-[3-methyl-5-(trifluoromethyl)indol-1-yl]phenyl]azetidine-3-carboxamide], the maximal response (Emax) was 115% on NURR-1/RXRα and 110% on NURR-1/RXRγ. Further, the EC50 is 3 nM at NURR-1/RXRα and 6 nM at NURR-1/RXRγ. For the same molecule, the “percentage of activity relative to the BDNF reference” value in test [1] (compound 1 μM) was 73%; in test [1] (compound 10 μM), 101%.

As to `Cc1cn(-c2cccc(N3CC(C(=O)NCCCn4ccnc4)C3)c2)c2ccc(C(F)(F)F)cc12` [Example 160], the maximal effect (Emax) is 115% at NURR-1/RXRα and 124% at NURR-1/RXRγ. Besides, the EC50 at NURR-1/RXRα was determined as 15 nM; at NURR-1/RXRγ, 31 nM. For the same molecule, the “percentage of activity relative to the BDNF reference” value in test [1] (compound 1 μM) came to 54%; in test [1] (compound 10 μM), 79%.
